Reference: patent US11364232B2, “Polymer of gamma-glutamyl transpeptidase catalyzing hydrolysis-induced charge reversal and its application in the field of drug delivery” (ZHEJIANG UNIVERSITY, priority 2017, dated 2022)

Molecular target: γ-glutamyl transpeptidase (Homo sapiens, UniProt P19440)
Test: γ-glutamyl transpeptidase (GGT)-catalyzed hydrolysis of monomers followed by NMR
Assay type: biochemical
Settings: monomer 25 μM in PBS pH 7.4 (D2O), GGT 1 U/mL, 37° C.
Procedure: Dissolve monomers GABEA or GAEA in PBS solution (pH=7.4, prepared by D2O) and configure the monomer concentration to 25 μM in the PBS solution. γ-glutamyl transpeptidase was added into the solution respectively so that the concentration of γ-glutamyl transpeptidase in the solution is 1 U/mL. At this time, the obtained product was immediately detected by nuclear magnetic resonance. The sample was placed in a 37° C. incubator and analyzed the nuclear magnetic resonance at different times.

Chain of γ-glutamyl transpeptidase (P19440 whole entry): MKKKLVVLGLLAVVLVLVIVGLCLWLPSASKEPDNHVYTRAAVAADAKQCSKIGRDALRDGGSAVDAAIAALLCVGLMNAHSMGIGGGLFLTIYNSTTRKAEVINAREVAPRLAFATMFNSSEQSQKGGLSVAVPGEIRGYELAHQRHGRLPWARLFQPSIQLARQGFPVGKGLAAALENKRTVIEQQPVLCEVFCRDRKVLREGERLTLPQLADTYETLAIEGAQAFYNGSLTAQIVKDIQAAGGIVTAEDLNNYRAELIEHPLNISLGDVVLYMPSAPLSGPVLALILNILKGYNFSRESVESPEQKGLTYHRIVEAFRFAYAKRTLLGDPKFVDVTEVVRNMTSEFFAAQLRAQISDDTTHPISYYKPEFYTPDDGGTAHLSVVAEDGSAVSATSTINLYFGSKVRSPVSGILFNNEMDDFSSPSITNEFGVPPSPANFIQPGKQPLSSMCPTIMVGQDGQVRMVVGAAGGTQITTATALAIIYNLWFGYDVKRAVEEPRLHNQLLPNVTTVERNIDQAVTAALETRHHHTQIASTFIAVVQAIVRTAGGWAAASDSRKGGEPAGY

## C=CC(=O)NCCNC(=O)CCC(N)C(=O)O (centres unmarked) [GAEA]
  hydrolysis activity of γ-glutamyl transpeptidase: lower catalytic activity

## C=CC(=O)NCCNC(=O)C(CC)NC(=O)CCC(N)C(=O)O (centres unmarked) [GABEA]
  hydrolysis activity of γ-glutamyl transpeptidase: far greater than GAEA
